Measurements: patent US4710578A, “Isothiuronium salts” (Peremartoni Vegyipari Vallalat, priority 1984, dated 1987)
Read-outs that look alike come from different tables or passages of the source.

Key:
heart muscle = assay: Cardioprotective effect in isoprenaline necrosis; assay type: in vivo, male CFY rats; conditions: 1-5 mg/kg i.p. or 10-50 mg/kg p.o.; isoproterenol 5 mg/kg i.p.; two weeks
Procedure: 5 mg/kg of isoproterenol are i.p. administered to male CFY rats (weight 250-300 g). In each group 10 animals were used. One part of the animals served as control and the other were treated with a 1-5 mg/kg i.p. or 10-50 mg/kg p.o. dose of compound No. 14. After two weeks the hearts were subjected to hystological evaluation. The ratio of necrotized and intact area of heart muscle were determined.

ticks (Ixodes ricinus) = assay: Anti-parasital effect in dogs infected by ticks; assay type: in vivo; conditions: oral 1-2 mg/kg; six-eight hours after administration
Procedure: Compounds of the Formula I were added orally to dogs infected by ticks (Ixodes ricinus) for three days. Thus N-aminoiminomethyl-S-allyl-isothiuronium hydrochloride was administered in an oral dose of 1-2 mg/kg and the killing rate of ticks was registered.

[1] = test system: hemodinamical parameters and respiration function of cats
[2] = test system: neutrophilic granulocytes, lymphocytes and macrophages; assay: Preliminary rapid test: immunostimulant effect; assay type: in vivo, CFLP male mice; design: key: 0: if there is no difference in the number and activity of the said cells, no increase can be declared over the control; medium: Medium effect is observed if the increase of cell number or activity over the control amounts to 20%; The effect is strong if the increase of the cell number and activity of the immune system is more than 20% higher than the control; conditions: oral, one-tenth of LD50; 24 hours
tumor cells = assay: Testing of antitumor effect (overall)
[3] = test system: human polymorphonuclear leucocytes; assay: Direct /random/ migration of human polymorphonuclear leucocytes on agarose microdrops; assay type: cell-based; conditions: for Effect on migration at a higher dose: 10 μg/ml; for Direct (random) migration of polymorphonuclear cells / Optimal dose for increase of migration: healthy donors
Procedure: Spontaneous (random) migration of leukocytes was measured on agarose microdrops according to the method of McCoy et al (1977) by carrying out some minor modifications (Kalmar and Gergely, 1982).
[…] agarose drops (0.2%) were placed on migration plates (Greiner, German Federal Republic). TC 199 liquid nutrient medium was added and the plates were air-tightly closed. After 24 hours the migration area were measured under a stereomicroscope. The migration area were expressed in mm^2.

[4] = test system: P-388 mouse lymphoma cells; assay: In vitro antitumor effect, P-388; assay type: cell-based; conditions: 400 μg/ml
NK-yl ascites tumor = assay: Combinations with known cytostatic agents in NK-ly ascites tumor; assay type: in vivo, CFLP mice; conditions: with cyclophosphamide, carnomustine, degranol, dibromo dulcitol or dibromo mannitol
NK-ly-ascites lymphoma = NK-ly-ascites lymphoma in vivo; design: species or system CFLP male mice; conditions: for Activity against NK-ly-ascites tumor: concentration below one-tenth of the LD50 value; for Survival rate and lifetime: dose-dependant
[5] = test system: human bone metastasis of mammal tumors, ovary tumors and pancreas tumors; assay: Human tumors, oral treatment for 6-12 months; assay type: in vivo; conditions: oral daily dose 30-120 mg (0.5-2 mg/kg)
[6] = test system: neutrophylic granulocytes and limphocytes; conditions: mouse, in vivo, po
human lymphocytes = assay: Immunological tests (overall; NK and K cell activity); assay type: cell-based
Procedure: Lymphocytes were separated on Ficoll-Uromiro (Boyum 1968) gradient from the venal blood of healthy donors and patients suffering from malignant lymphoma and metastatizing solid tumours, respectively. When selecting the patients belonging to the latter group, the decreased ADCC and NK activity was taken into consideration. The phagocytes were removed by treatment with iron powder and a magnet.
ADCC was determined according to the method of Perlmann and Perlmann (1970) with minor modifications (Lang et al, 1981). Chicken erythrocytes labelled with 10^5 51 Cr and coated with anti-chicken erythrocyte rabbit-serum were incubated with the lymphocytes for 4 hours at 37° C. The reaction having been stopped the activity of the supernatant of the centrifuged cells was determined in a gamma-counter. The rate of chrome-release was expressed as the cytotoxicity index (CI %). This value was calculated as described in one of our earlier publications (Lang et al., 1980)--(see Table I).
NK activity was determined by the method of Jondal and Pross (1975) by using minor modifications (Lang et al, 1981). K-562 tumor cells labelled by ^51 Cr were incubated with effector cells in a TC 199 liquid nutrient medium comprising 10% of decomplemented calf serum. The reaction having been stopped the radioactivity of the superntant of the centrifuged cells (chrome release) was counted in a gamma-counter. The killing of the tumor cells (cytotoxicity index %) was expressed as the difference of the test release and spontaneous release.
Statistical calculations were carried out by means of a mono-sample test. […] The said effect may be so strong that cytotoxic activity decreased to one-tenth of the original value may be restored to the oroginal level (Table II).

ascites lymphoma cells = assay: Preliminary rapid test: antitumor effect; assay type: in vivo, CFLP male mice; conditions: oral, one-tenth of LD50; 24 hours
[7] = in vivo, 24 h

Row | Molecule | Immunostimulant effect [2] | Antitumor effect (tumor cells) | Effect on migration at a higher dose [3] | Direct (random) migration of polymorphonuclear cells [3] | Optimal dose for increase of migration [3] [µg/mL] | Antitumor effect of combination vs cytostatic agent alone (NK-yl ascites tumor) | Immunodepression of combination vs cytostatic agent alone (NK-yl ascites tumor) | Activity against NK-ly-ascites tumor (NK-ly-ascites lymphoma) | Survival rate and lifetime (NK-ly-ascites lymphoma) | LD50 at 24 h (in vivo; ip) [mg/kg] | LD50 at 24 h (in vivo; po) [mg/kg] | Toxic effect [6] | Immunostimulant effect (human lymphocytes) | Increase of normal and strongly decreased NK and K cell activity (human lymphocytes) | other results
1 | C=CCSC(=N)NC(=N)N [Example 12, N-Aminoiminomethyl-S-Allyl-Isothiuronium Chloride] |  |  |  |  |  |  |  |  |  |  |  |  |  |  | Necrosis of heart muscle (heart muscle): significant decrease of necrosis; Killing rate of ticks (ticks (Ixodes ricinus)): all ticks were killed
2 | C=CCSC(=N)NC(=N)N [Example 11, N-Aminoiminomethyl-S-Allyl-Isothiuronium Bromide] | strong (The effect is strong if the increase of the cell number and activity of the immune system is more than 20% higher than the control) | outstanding antitumor effect | less expressed | increased | 1.0 | the antitumor effect was strengthened | immunodepression decreased | active agains Nk-ly-ascites tumor in a concentration below one-tenth of the LD50 value | increase survival rate and lifetime in a dose-dependant manner | 320 ± 30 | 2380 ± 320 | 0 | outstanding immunostimulant effect | significant increase of normal and strongly decreased NK and K cell activity, even above the normal level | Hemodinamical parameters and respiration function ([1]; 10 mg/kg i.v., opened and closed chest): does not considerably effect the hemodinamical parameters and respiration function; Left ventricular pressure and frequency effects ([1]; 50 mg/kg i.v.): significant and long-lasting; Hemodynamical changes ([1]; 100 mg/kg i.v.): strong hemodynamical changes were observed; Left ventricular pressure and frequency ([1]; above 10 mg/kg i.v.): decreased; Lethality ([1]; in vivo): the cats did not perish; Activity on P-388 cells on increasing the concentration [4]: the activity does not become stronger; Cytotoxical dose range (NK-ly-ascites lymphoma; mouse, in vivo): 250 to 500 mg/kg; Clinical outcome in human tumors [5]: significant improvement or reconvalescence
3 | N=C(N)NC(=N)SCCO [Example 16, N-Aminoiminomethyl-S-(2-Hydroxyethyl)-Isothiuronium Chloride] | strong (The effect is strong if the increase of the cell number and activity of the immune system is more than 20% higher than the control) |  |  |  |  | the antitumor effect was strengthened | immunodepression decreased |  |  | 1680 ± 210 | 3280 ± 460 | 0 | outstanding immunostimulant effect | significant increase of normal and strongly decreased NK and K cell activity, even above the normal level | 
4 | N=C(N)NC(=N)SCc1ccccc1 [Example 18, N-Aminoiminomethyl-S-Benzyl-Thiuronium Chloride] | 0 |  |  |  |  |  |  |  |  |  | 2420 ± 260 | 0 |  |  | Antitumor effect (ascites lymphoma cells): increase
5 | N-Aminoiminomethyl-S-(1-Chloro-2-Hydroxy-Propyl)-Isothiuronium Bromide [Example 14] | weak | outstanding antitumor effect | less expressed | increased | 1.0 | the antitumor effect was strengthened | immunodepression decreased | active agains Nk-ly-ascites tumor in a concentration below one-tenth of the LD50 value | increase survival rate and lifetime in a dose-dependant manner |  |  |  |  |  | LD50 [7]: 2380 mg/kg; LD50 ([7]; po): 1240 ± 160 mg/kg
